Experimental data as given in ChEMBL document CHEMBL3112450, “Synthesis and in vitro antitumor evaluation of primary amine substituted quinazoline linked benzimidazole” (Bioorg Med Chem Lett, 2014).

Tests used:
Assay type in all cases: functional
[1] = system: UACC-62; assay: Cytotoxicity against human UACC62 cells assessed as cell growth at 10^-8 M after 48 hrs by SRB assay; settings: UACC-62, 48 h, read-out: Activity
[2] = system: 786-0; assay: Cytotoxicity against human 786-0 cells after 48 hrs by SRB assay; settings: 786-0, 48 h
[3] = system: MDA-MB-468; assay: Cytotoxicity against human MDA-MB-468 cells assessed as cell growth at 10^-8 M after 48 hrs by SRB assay; settings: MDA-MB-468, 48 h, read-out: Activity
[4] = system: MOLT-4; assay: Cytotoxicity against human MOLT4 cells assessed as cell growth at 10^-6 M after 48 hrs by SRB assay; settings: MOLT-4, 48 h, read-out: Activity
[5] = Cytotoxicity against human NCI-ADR-RES cells after 48 hrs by SRB assay
[6] = system: MDA-MB-435; assay: Cytotoxicity against human MDA-MB-435 cells assessed as cell growth at 10^-8 M after 48 hrs by SRB assay; settings: MDA-MB-435, 48 h, read-out: Activity
[7] = system: NCI-H23; assay: Cytotoxicity against human NCI-H23 cells assessed as cell growth at 10^-6 M after 48 hrs by SRB assay; settings: NCI-H23, 48 h, read-out: Activity
[8] = system: NCI-H460; assay: Cytotoxicity against human NCI-H460 cells assessed as cell growth at 10^-4 M after 48 hrs by SRB assay; settings: NCI-H460, 48 h, read-out: Activity
[9] = system: PC-3; assay: Cytotoxicity against human PC3 cells assessed as cell growth at 10^-8 M after 48 hrs by SRB assay; settings: PC-3, 48 h, read-out: Activity
[10] = system: SR; assay: Cytotoxicity against human SR cells assessed as cell growth at 10^-4 M after 48 hrs by SRB assay; settings: read-out: Activity
[11] = system: MDA-MB-468; assay: Cytotoxicity against human MDA-MB-468 cells assessed as cell growth at 10^-6 M after 48 hrs by SRB assay; settings: MDA-MB-468, 48 h, read-out: Activity
[12] = system: ACHN; assay: Cytotoxicity against human ACHN cells assessed as cell growth at 10^-7 M after 48 hrs by SRB assay; settings: read-out: Activity
[13] = system: SW-620; assay: Cytotoxicity against human SW620 cells assessed as cell growth at 10^-7 M after 48 hrs by SRB assay; settings: SW-620, 48 h, read-out: Activity
[14] = system: SNB-19; assay: Cytotoxicity against human SNB19 cells assessed as cell growth at 10^-6 M after 48 hrs by SRB assay; settings: SNB-19, 48 h, read-out: Activity
[15] = system: T47D; assay: Cytotoxicity against human T47D cells assessed as cell growth at 10^-8 M after 48 hrs by SRB assay; settings: read-out: Activity
[16] = system: LOX IMVI; assay: Cytotoxicity against human LOXIMVI cells assessed as cell growth at 10^-8 M after 48 hrs by SRB assay; settings: read-out: Activity
[17] = system: RPMI-8226; assay: Cytotoxicity against human RPMI8226 cells assessed as cell growth at 10^-6 M after 48 hrs by SRB assay; settings: RPMI-8226, 48 h, read-out: Activity
[18] = system: KM12; assay: Cytotoxicity against human KM12 cells assessed as cell growth at 10^-6 M after 48 hrs by SRB assay; settings: KM12, 48 h, read-out: Activity
[19] = system: NCI-H226; assay: Cytotoxicity against human NCI-H226 cells after 48 hrs by SRB assay; settings: NCI-H226, 48 h
[20] = Cytotoxicity against human Hs578T cells assessed as cell growth at 10^-6 M after 48 hrs by SRB assay; settings: Hs-578T, read-out: Activity
[21] = system: T47D; assay: Cytotoxicity against human T47D cells assessed as cell growth at 10^-4 M after 48 hrs by SRB assay; settings: read-out: Activity
[22] = system: OVCAR-8; assay: Cytotoxicity against human OVCAR8 cells assessed as cell growth at 10^-8 M after 48 hrs by SRB assay; settings: OVCAR-8, 48 h, read-out: Activity
[23] = system: NCI-H23; assay: Cytotoxicity against human NCI-H23 cells assessed as cell growth at 10^-7 M after 48 hrs by SRB assay; settings: NCI-H23, 48 h, read-out: Activity
[24] = system: HCT-15; assay: Cytotoxicity against human HCT15 cells assessed as cell growth at 10^-6 M after 48 hrs by SRB assay; settings: HCT-15, 48 h, read-out: Activity
[25] = system: SK-OV-3; assay: Cytotoxicity against human SKOV3 cells assessed as cell growth at 10^-6 M after 48 hrs by SRB assay; settings: SK-OV-3, 48 h, read-out: Activity
[26] = Cytotoxicity against human Hs578T cells after 48 hrs by SRB assay; settings: Hs-578T
[27] = system: NCI-H460; assay: Cytotoxicity against human NCI-H460 cells after 48 hrs by SRB assay; settings: NCI-H460, 48 h
[28] = system: HL-60(TB); assay: Cytotoxicity against human HL-60(TB) cells assessed as cell growth at 10^-7 M after 48 hrs by SRB assay; settings: HL-60, 48 h, read-out: Activity
[29] = system: SK-MEL-28; assay: Cytotoxicity against human SK-MEL-28 cells assessed as cell growth at 10^-7 M after 48 hrs by SRB assay; settings: SK-MEL-28, 48 h, read-out: Activity
[30] = system: IGROV-1; assay: Cytotoxicity against human IGROV1 cells assessed as cell growth at 10^-7 M after 48 hrs by SRB assay; settings: IGROV-1, 48 h, read-out: Activity
[31] = system: SN12C; assay: Cytotoxicity against human SN12C cells assessed as cell growth at 10^-8 M after 48 hrs by SRB assay; settings: read-out: Activity
[32] = system: 786-0; assay: Cytotoxicity against human 786-0 cells assessed as cell growth at 10^-8 M after 48 hrs by SRB assay; settings: 786-0, 48 h, read-out: Activity
[33] = Cytotoxicity against human UO31 cells assessed as cell growth at 10^-6 M after 48 hrs by SRB assay; settings: UO-31, 48 h, read-out: Activity
[34] = system: PC-3; assay: Cytotoxicity against human PC3 cells assessed as cell growth at 10^-6 M after 48 hrs by SRB assay; settings: PC-3, 48 h, read-out: Activity
[35] = Cytotoxicity against human NCI-ADR-RES cells assessed as cell growth at 10^-4 M after 48 hrs by SRB assay; settings: read-out: Activity
[36] = system: NCI-H226; assay: Cytotoxicity against human NCI-H226 cells assessed as cell growth at 10^-6 M after 48 hrs by SRB assay; settings: NCI-H226, 48 h, read-out: Activity
[37] = system: HCT-15; assay: Cytotoxicity against human HCT15 cells assessed as cell growth at 10^-4 M after 48 hrs by SRB assay; settings: HCT-15, 48 h, read-out: Activity
[38] = system: OVCAR-8; assay: Cytotoxicity against human OVCAR8 cells assessed as cell growth at 10^-4 M after 48 hrs by SRB assay; settings: OVCAR-8, 48 h, read-out: Activity
[39] = system: M14; assay: Cytotoxicity against human M14 cells assessed as cell growth at 10^-4 M after 48 hrs by SRB assay; settings: M14, 48 h, read-out: Activity

Question: Which results are given for `C=CCn1c(C)nc2ccc(Nc3nc(Nc4ccc5nc(C)n(CC=C)c5c4)c4ccccc4n3)cc21`?
Answer: growth at 0.01 µM [1]: 96%; GI50 [2]: 1730 nM; TGI [2]: 3360 nM; growth at 0.01 µM [3]: 93%; growth at 1 µM [4]: 73%; GI50 [5]: 2220 nM; LC50 [5]: > 100000 nM; TGI [5]: 6070 nM; growth at 0.01 µM [6]: 100%; growth at 1 µM [7]: 93%; growth at 100 µM [8]: -28%; growth at 0.01 µM [9]: 93%; growth at 100 µM [10]: -2%; growth at 1 µM [11]: 64%; growth at 0.1 µM [12]: 92%; growth at 0.1 µM [13]: 94%; growth at 1 µM [14]: 85%; growth at 0.01 µM [15]: 96%; growth at 0.01 µM [16]: 91%; growth at 1 µM [17]: 83%; growth at 1 µM [18]: 89%; GI50 [19]: 1750 nM; TGI [19]: 3310 nM; growth at 1 µM [20]: 81%; growth at 100 µM [21]: -22%; growth at 0.01 µM [22]: 97%; growth at 0.1 µM [23]: 91%; growth at 1 µM [24]: 91%; growth at 1 µM [25]: 96%; GI50 [26]: 1710 nM; TGI [26]: 4080 nM; GI50 [27]: 1890 nM; TGI [27]: 3700 nM; growth at 0.1 µM [28]: 94%; growth at 0.1 µM [29]: 95%; growth at 0.1 µM [30]: 101%; growth at 0.01 µM [31]: 96%; growth at 0.01 µM [32]: 98%; growth at 1 µM [33]: 71%; growth at 1 µM [34]: 71%; growth at 100 µM [35]: -18%; growth at 1 µM [36]: 94%; growth at 100 µM [37]: -15%; growth at 100 µM [38]: -18%; growth at 100 µM [39]: -7%

Question: Which results are given for `C=CCn1c(C)nc2cc(Nc3nc(Nc4ccc5nc(C)n(CC=C)c5c4)c4ccccc4n3)ccc21`?
Answer: growth at 0.01 µM [1]: 97%; GI50 [2]: 188 nM; TGI [2]: 362 nM; growth at 0.01 µM [3]: 106%; growth at 1 µM [4]: -23%; GI50 [5]: 1840 nM; LC50 [5]: > 100000 nM; TGI [5]: 4430 nM; growth at 0.01 µM [6]: 97%; growth at 1 µM [7]: 100%; growth at 100 µM [8]: 1%; growth at 0.01 µM [9]: 98%; growth at 100 µM [10]: 2%; growth at 1 µM [11]: -28%; growth at 0.1 µM [12]: 103%; growth at 0.1 µM [13]: 98%; growth at 1 µM [14]: 54%; growth at 0.01 µM [15]: 92%; growth at 0.01 µM [16]: 95%; growth at 1 µM [17]: 59%; growth at 1 µM [18]: -40%; GI50 [19]: 2030 nM; LC50 [19]: > 100000 nM; TGI [19]: 5040 nM; growth at 1 µM [20]: 94%; growth at 100 µM [21]: -13%; growth at 0.01 µM [22]: 100%; growth at 0.1 µM [23]: 93%; growth at 1 µM [24]: 12%; growth at 1 µM [25]: 97%; GI50 [26]: 2160 nM; LC50 [26]: > 100000 nM; TGI [26]: 5160 nM; GI50 [27]: 220 nM; growth at 0.1 µM [28]: 96%; growth at 0.1 µM [29]: 106%; growth at 0.1 µM [30]: 106%; growth at 0.01 µM [31]: 94%; growth at 0.01 µM [32]: 99%; growth at 1 µM [33]: 72%; growth at 1 µM [34]: 1%; growth at 100 µM [35]: -24%; growth at 1 µM [36]: 89%; growth at 100 µM [37]: 2%; growth at 100 µM [38]: 1%; growth at 100 µM [39]: -4%
